Measurements from patent publication US20250084056A1, “SUBSTITUTED OXOISOINDOLINYL PIPERIDINE-2,6-DIONE COMPOUNDS” (BRISTOL-MYERS SQUIBB COMPANY, priority 2023, published 2025).

Columns and labels:
GSPT1 [1] = target: T1, GSPT1 (Homo sapiens, UniProt P15170+Q96SW2); experiment: Degradation of GSPT1 (Western blot) in HCC1569 cells; type: cell-based; parameters: endogenous in cells; host or cells: HCC1569 (ATCC CRL-2330); settings: HCC1569 cancer cells, 24 h, up to a concentration of 10 μM, FIG. 1C
Method: The assay measured the ability of the compound to degrade Cyclin E1, inhibit RB phosphorylation, and to determine the selectivity against degradation of GSPT1 in cancer cells in vitro. HCC1569 cells (ATCC #CRL-2330) were cultured in RPMI media (Gibco, catalog A104910) supplemented with 10% FBS (Gibco, catalog 10091148). Cells were plated in tissue culture-treated 6 well plates at a density of 0.5 million cells per well in 2 mL media. The cells were then incubated overnight in a cell culture incubator (5% CO2 and 37° C.) and allowed to attach to the plate. The following day cells were dosed with compounds at the desired concentrations. Compounds were first resuspended in DMSO to make 10 mM stock, and 20 μM stock was prepared by diluting 10 mM stock in culture media. […] Total protein concentration was measured using a BCA assay kit (Thermo Scientific, cat #P123227). […] Protein was then detected by incubating blots with 2 mL of HRP detection reagent (Thermo scientific cat #A38556) for one minute at room temperature. Excess reagent was drained and gently removed on a Kimwipe and the chemiluminescence signal was detected using Fluorchem imaging system. […] Relative quantification of western blots was performed using ImageJ software, data was then normalized to loading control (β-Actin) first and then to the DMSO-treated sample. […]

GSPT1 [2] = target: T1, GSPT1; experiment: GSPT1 Cellular Degradation Assay (DF15-GSPT1-ePL); type: cell-based; parameters: expressed in transfected cells; settings: DF15-GSPT1-ePL cells, 20 hours
Outline: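 DC50 and Dmax were derived from chemiluminescence, with 75% response set by the reference compound at […]. Readout was ePL enzyme-fragment complementation in a DF15 line expressing chimeric GSPT1. Cells were exposed to compound for 20 h at 37 °C in RPMI 1640 with 10% FBS, cooled 30 min, then lysed with substrate for 60 min.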

[3] = system: MKN1 gastric carcinoma xenograft model; experiment: In vivo xenograft tumor efficacy study, MKN1; parameters: species or system mice

T1 sequence (P15170 whole entry): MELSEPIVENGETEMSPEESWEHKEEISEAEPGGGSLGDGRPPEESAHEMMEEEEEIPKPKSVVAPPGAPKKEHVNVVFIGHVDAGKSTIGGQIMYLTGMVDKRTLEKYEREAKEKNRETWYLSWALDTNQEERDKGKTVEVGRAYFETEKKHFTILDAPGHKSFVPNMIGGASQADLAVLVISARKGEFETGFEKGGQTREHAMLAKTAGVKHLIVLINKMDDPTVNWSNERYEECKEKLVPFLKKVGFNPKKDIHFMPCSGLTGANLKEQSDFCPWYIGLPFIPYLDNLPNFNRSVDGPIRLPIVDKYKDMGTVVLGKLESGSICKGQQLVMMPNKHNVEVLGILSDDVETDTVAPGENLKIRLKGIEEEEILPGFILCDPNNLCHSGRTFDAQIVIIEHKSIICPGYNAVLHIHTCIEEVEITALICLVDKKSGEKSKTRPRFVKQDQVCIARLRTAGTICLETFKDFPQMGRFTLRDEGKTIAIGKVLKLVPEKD
T1 sequence (Q96SW2 whole entry): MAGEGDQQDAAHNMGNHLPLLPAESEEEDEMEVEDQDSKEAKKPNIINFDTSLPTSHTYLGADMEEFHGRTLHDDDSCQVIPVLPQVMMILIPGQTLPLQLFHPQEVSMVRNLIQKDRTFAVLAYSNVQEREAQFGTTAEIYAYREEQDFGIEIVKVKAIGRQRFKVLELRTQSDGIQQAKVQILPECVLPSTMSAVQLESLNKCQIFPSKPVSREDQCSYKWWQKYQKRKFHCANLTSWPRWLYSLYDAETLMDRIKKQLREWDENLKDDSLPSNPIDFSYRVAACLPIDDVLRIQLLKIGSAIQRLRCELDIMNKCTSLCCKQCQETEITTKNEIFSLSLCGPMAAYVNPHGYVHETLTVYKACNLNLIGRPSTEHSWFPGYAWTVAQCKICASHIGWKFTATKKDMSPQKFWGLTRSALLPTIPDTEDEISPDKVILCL
T1 sequence (Q16531 whole entry partner): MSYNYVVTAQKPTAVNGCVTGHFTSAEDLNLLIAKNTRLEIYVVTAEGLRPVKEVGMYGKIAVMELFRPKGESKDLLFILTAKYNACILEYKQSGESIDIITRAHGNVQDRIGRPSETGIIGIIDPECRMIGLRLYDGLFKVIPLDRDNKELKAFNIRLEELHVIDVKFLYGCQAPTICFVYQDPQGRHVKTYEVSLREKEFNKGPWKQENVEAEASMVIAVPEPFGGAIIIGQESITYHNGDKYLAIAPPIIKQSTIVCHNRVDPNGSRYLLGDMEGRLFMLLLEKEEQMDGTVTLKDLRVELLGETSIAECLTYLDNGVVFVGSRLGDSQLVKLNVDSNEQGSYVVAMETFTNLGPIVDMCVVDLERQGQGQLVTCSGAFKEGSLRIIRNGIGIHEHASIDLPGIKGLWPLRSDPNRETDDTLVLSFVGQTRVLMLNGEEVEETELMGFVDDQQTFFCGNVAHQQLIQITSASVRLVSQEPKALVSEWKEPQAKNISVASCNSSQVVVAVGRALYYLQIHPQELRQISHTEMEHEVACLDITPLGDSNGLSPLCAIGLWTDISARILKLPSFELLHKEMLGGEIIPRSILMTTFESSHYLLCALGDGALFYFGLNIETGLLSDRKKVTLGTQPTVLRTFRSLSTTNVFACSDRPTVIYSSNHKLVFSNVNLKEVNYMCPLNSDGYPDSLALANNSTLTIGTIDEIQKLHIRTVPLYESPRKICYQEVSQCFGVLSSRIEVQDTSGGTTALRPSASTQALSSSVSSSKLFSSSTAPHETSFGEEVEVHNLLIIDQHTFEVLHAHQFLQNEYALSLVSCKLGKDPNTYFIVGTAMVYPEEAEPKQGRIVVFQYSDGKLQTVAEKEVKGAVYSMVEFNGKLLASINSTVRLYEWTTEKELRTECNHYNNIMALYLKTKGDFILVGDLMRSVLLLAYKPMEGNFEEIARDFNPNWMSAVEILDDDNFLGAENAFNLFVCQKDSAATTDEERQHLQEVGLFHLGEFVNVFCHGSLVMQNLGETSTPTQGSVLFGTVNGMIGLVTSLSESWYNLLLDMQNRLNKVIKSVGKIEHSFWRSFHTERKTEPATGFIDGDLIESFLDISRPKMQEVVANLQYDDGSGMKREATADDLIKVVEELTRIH

DC50 (GSPT1 [2]): > 14 µM
Dmax (GSPT1 [2]): 46%
SMILES: COc1c(COC(=O)Nc2ccc(Oc3ccc(F)c(F)c3)cc2)ccc2c1C(=O)N([C@H]1CCC(=O)NC1=O)C2 (single isomer, unassigned) [Example 35, {2-[(3 S)-2,6-dioxopiperidin-3-yl]-4-methoxy-3-oxo-2,3-dihydro-1H-isoindol-5-yl}methyl N-[4-(3,4-difluorophenoxy)phenyl]carbamate]
degradation of GSPT1 protein (GSPT1 [1]): did not significantly degrade GSPT1 protein
tumor growth inhibition (TGI) ([3]; MKN1 gastric carcinoma xenograft, 30 mpk, QDx28 (as printed in text)): 95%
Tumor efficacy, TGI (tumor growth inhibition) ([3]; MKN1 stomach, 10 mg/kg PO, QDx28): 95% TGI
anti-tumor activity ([3]; MKN1 xenografts, repeated dosing): dose-dependent anti-tumor activity
